{"source": "patent US20060074073A1", "about": "“Therapeutic combinations comprising poly (ADP-ribose) polymerases inhibitor” (AGOURON PHARMACEUTICALS, INC., priority 2004, published 2006)", "key": {"[1]": {"system": "SW620 human colon carcinoma xenograft", "test": "In vivo antitumor efficacy with temozolomide, SW620 xenograft", "details": "for Enhancement (%): SW620"}, "LoVo xenografts": {"system": "LoVo xenografts", "test": "In vivo antitumor efficacy with irinotecan, LoVo xenograft", "parameters": "species or system mice", "details": "irinotecan 25 mg/kg i.p. + 0.5 mg/kg i.p. (glucuronate salt), once weekly × 3", "excerpt": "In no combination study was antagonism observed."}, "PARP": {"system": "PARP", "test": "Tumor PARP catalytic activity, 32P-NAD incorporation in SW620 tumor homogenates of treated animals", "type": "in vivo, mice", "procedure": "Tumours were excised and were snap frozen in liquid nitrogen and stored at −80° C. until homogenised for analysis. The specimen was defrosted on ice and the wet weight documented. The tissue was homogenised using a Pro 2000 instrument (Pro Scientific Inc, Monroe, Conn., USA) in 3 volumes (i.e. 1 mg plus 3 μl isotonic buffer −7 mM Hepes, 26 mM KCl, 0.1 mM dextran, 0.4 mM EGTA, 0.5 mM MgCl2, 45 mM sucrose, pH 7.8), giving a homogenate with an overall dilution of 1 in 4. The homogenate was kept on ice throughout the process, and homogenisation was performed in 10 second bursts to prevent undue warming of the sample. Prior to assay the samples were further diluted with isotonic buffer where necessary to give a final dilution of 1 in 40 for [^32P]NAD incorporation assay or 1 in 1000 for immunoblot aaasy.\nBriefly, cells were suspended in hypotonic buffer (9 mM HEPES pH 7.8, 4.5% (v/v) dextran, 4.5 mM MgCl2 and 5 mM DTT) at 1.5×10^7/ml on ice for 30 minutes then 9 vol of isotonic buffer (40 mM HEPES pH 7.8, 130 mM KCl, 4% (v/v) dextran, 2 mM EGTA, 2.3 mM MgCl2, 225 mM sucrose and 2.5 mM DTT) was added. The reaction was started by adding 300 μl cells to 100 μl 300 μM NAD^+ containing [^32P]-NAD^+ (Amersham, UK), and terminated by the addition of 2 ml ice cold 10% (w/v) TCA+10% (w/v) sodium pyrophosphate. After 30 min on ice the precipitated ^32P—labelled ADP-ribose polymers were filtered on Whatman GC/C filters (Whatman Intemational Ltd, Kent, UK), washed 5 times with 1% (v/v) TCA/1% (v/v) sodium pyrophosphate, dried and counted. PARP inhibitory IC50 values were calculated from computer-fitted curves (GraphPad Software, Inc., San Diego, Calif.).\nTumour homogenates were assayed in a similar manner; however, the homogenisation process introduces sufficient DNA damage to maximally stimulate PARP activity and oligonucleotide was not therefore required. Results were expressed in terms of pmol PAR former per mg tumour.\nPreparation of Tumour/Tissue Samples • 1. The frozen tumour samples are weighed. • 2. 3 volumes (i.e. 3 μl solution added for each 1 mg tissue) of isotonic buffer plus DTT is added to the tumour sample. This is stored on ice until and during homogenisation. • 3. The sample is homogenised on ice within a Class II cabinet for 10-second bursts until no detectable macroscopic pieces of tissue are visible. • 4. Sufficient volume of the homogenate is diluted 1 in 10 with isotonic buffer plus DTT to provide an overall dilution of 1 in 40 from the original sample. A final volume of 3 ml is sufficient for triplicate sampling and a subsequent protein assay. • 5. The diluted homogenate is stored on ice and assayed within one hour as below.\nPARP Assay of Tumour/Tissue Samples • 1. ^32P 600 μM NAD solution is prepared fresh on the day of experiment as detailed above. Oligonucleotide stock is removed from storage and defrosted. • 2. Water bath is warmed to 26° C. and set to agitate at 70 oscillations per minute.\n3. Reaction test tubes are set up as per table A for the QC samples and as per table B for the homogenate.\n• 4. Each QC sample is assayed in triplicate, with T0, +oligo and −oligo samples ×3. (Total of 9 tubes per sample, if low cell counts −oligo samples are omitted.) Homogenates are also assayed in triplicate, with T0 and reaction samples ×3. (Total 6 tubes per sample). • 5. 2 ml ice cold 10% TCA+10% NaPPi is added to the T0 tubes prior to addition of homogenate or cells, to correct for non-specific binding of radio-label to the filter. • 6. Reaction test tubes homogenates and QC cells are warmed in the water bath to 26° C. for 7 minutes. • 7. Each preparation is vortexed briefly and the reaction is started by adding 300 μl of this to each reaction tube. • 8. The reaction is stopped exactly 6 minutes after addition of homogenate by adding 2 ml of ice cold 10% TCA+10% NaPPi and vortexing. • 9. The tube is then incubated on ice for at least one hour prior to filtration. • 10. […]"}, "[2]": {"test": "IV pharmacokinetics, summary over all species", "parameters": "species or system CD-1 mice, Wistar rats, Beagle dogs, and cynomolgus monkeys", "details": "CD-1 (mouse), Wistar (rat), Beagle (dog), cynomolgus monkey, in vivo, IV dosing", "excerpt": "Each of the dose treatment groups was split into 2 cohort groups of 4 mice. The reason for cohort blood sampling is due to the blood volume limitations of the mouse species. Blood was drawn from each cohort every other pharmacokinetic sampling time. […] Three mice per dose group were euthanized at each of the collection time points. […] Blood from each rat was collected for each time point."}, "[3]": {"test": "Plasma and tumor levels by HPLC/MS in mice bearing SW620 xenograft", "type": "in vivo", "details": "for concentration at 0.5 h / concentration at 6 h / concentration at 24 h: mouse, intraperitoneal", "procedure": "In a parallel study plasma and tumor levels of the compound of formula 1 were measured by an HPLC/MS assay. In addition the degree of inhibition of tumor PARP catalytic activity was assessed using P^32-NAD incorporation into poly-ADP-ribose polymer in homogenates from SW620 tumors of treated animals. […] PARP catalytic activity was inhibited by 50% at 6 h and by 25% at 24 h."}}, "note": "Read-outs that look alike come from different tables or passages of the source. Marks after values point to notes of the source that are not given here."}
{"compound": "CNCc1ccc(-c2[nH]c3cc(F)cc4c3c2CCNC4=O)cc1.O=P(O)(O)O", "note": "[Compound I, phosphate salt of 8-fluoro-2-{4-[(methylamino)methyl]phenyl}-1,3,4,5-tetrahydro-6H-azepino[5,4,3-cd]indol-6-one]", "values": [{"measurement": "single-agent antitumor effects", "setting": "[1]; Compound I alone", "result": "no single-agent antitumor effects"}]}
{"compound": "CNCc1ccc(-c2[nH]c3cc(F)cc4c3c2CCNC4=O)cc1", "note": "[compound of formula 1, 8-fluoro-2-{4-[(methylamino)methyl]phenyl}-1,3,4,5-tetrahydro-6H-azepino[5,4,3-cd]indol-6-one]", "values": [{"measurement": "Enhancement (%)", "setting": "LoVo xenografts", "result": 86, "unit": "%"}, {"measurement": "Enhancement (%)", "setting": "[1]; 0.1 mg/kg i.p. glucuronate salt + temozolomide 68 mg/kg p.o., QD×5", "result": 28, "unit": "%"}, {"measurement": "Enhancement (%)", "setting": "[1]; 1.0 mg/kg i.p. glucuronate salt + temozolomide 68 mg/kg p.o., QD×5", "result": 100, "unit": "%"}, {"measurement": "Enhancement (%)", "setting": "[1]; temozolomide 200 mg/kg oral + compound 0.1 mg/kg i.p., single dose", "result": "50^e %"}, {"measurement": "Enhancement (%)", "setting": "[1]; temozolomide 200 mg/kg oral + compound 0.3 mg/kg i.p., single dose", "result": "80^e %"}, {"measurement": "Enhancement (%)", "setting": "[1]; temozolomide 200 mg/kg oral + compound 1 mg/kg i.p., single dose", "result": "107^e %"}, {"measurement": "Enhancement (%)", "setting": "[1]; temozolomide 200 mg/kg oral + compound 5 mg/kg i.p., single dose", "result": "111^e,f %"}, {"measurement": "PARP catalytic activity inhibited", "setting": "PARP; 1.0 mg/kg, 6 h", "result": 50, "unit": "%"}, {"measurement": "PARP catalytic activity inhibited", "setting": "PARP; 1.0 mg/kg, 24 h", "result": 25, "unit": "%"}, {"measurement": "PARP catalytic activity inhibited", "setting": "PARP; 10 mg/kg, 6 h", "result": 90, "unit": "%"}, {"measurement": "PARP catalytic activity inhibited", "setting": "PARP; 10 mg/kg, 24 h", "result": 75, "unit": "%"}, {"measurement": "clearance", "setting": "[2]", "result": "34 to 136", "unit": "mL/min/kg"}, {"measurement": "half-life", "setting": "[2]; read-out: terminal half-life", "result": "120 to 300", "unit": "min"}, {"measurement": "Vd", "setting": "[2]; read-out: volume of distribution", "result": "7 to 15", "unit": "L/kg"}, {"measurement": "Tumor compound of formula 1", "setting": "[3]; 1.0 mg/kg i.p. as phosphate salt, 24 h", "result": "BLQ^c"}, {"measurement": "plasma concentrations", "setting": "[3]; 1.0 mg/kg, 6 hours", "result": "barely detectable"}, {"measurement": "Plasma compound of formula 1", "setting": "[3]; 10 mg/kg i.p. as phosphate salt, 0.5 h", "result": "1867 + 102 ng/mL"}, {"measurement": "plasma concentrations", "setting": "[3]; 10 mg/kg, 24 h", "result": "barely detectable"}, {"measurement": "tumor levels", "setting": "[3]; 10 mg/kg, all times up to 24 h", "result": "> 200", "unit": "ng/mL"}, {"measurement": "concentration at 0.5 h", "setting": "[3]; plasma, 1 mg/kg, Plasma compound of formula 1, 1.0 mg/kg i.p. as phosphate salt, 0.5 h", "result": "107 ± 32.3", "unit": "ng/mL"}, {"measurement": "concentration at 6 h", "setting": "[3]; plasma, 1 mg/kg, Plasma compound of formula 1, 1.0 mg/kg i.p. as phosphate salt", "result": "6.64 ± 1.55", "unit": "ng/mL"}, {"measurement": "concentration at 24 h", "setting": "[3]; plasma, 1 mg/kg, Plasma compound of formula 1, 1.0 mg/kg i.p. as phosphate salt, 24 h", "result": "1.85 ± 0.14", "unit": "ng/mL"}, {"measurement": "concentration at 6 h", "setting": "[3]; plasma, 10 mg/kg, Plasma compound of formula 1, 10 mg/kg i.p. as phosphate salt", "result": "64.4 ± 11", "unit": "ng/mL"}, {"measurement": "concentration at 24 h", "setting": "[3]; plasma, 10 mg/kg, Plasma compound of formula 1, 10 mg/kg i.p. as phosphate salt, 24 h", "result": "2.34 ± 0.33", "unit": "ng/mL"}, {"measurement": "concentration at 6 h", "setting": "[3]; plasma, 10 mg/kg, read-out: plasma concentrations", "result": 30, "unit": "ng/mL"}, {"measurement": "concentration at 0.5 h", "setting": "[3]; tumor, 1 mg/kg, Tumor compound of formula 1, 1.0 mg/kg i.p. as phosphate salt, 0.5 h", "result": "98.3 ± 25.2", "unit": "ng/g"}, {"measurement": "concentration at 6 h", "setting": "[3]; tumor, 1 mg/kg, Tumor compound of formula 1, 1.0 mg/kg i.p. as phosphate salt", "result": "49.5 ± 2.12", "unit": "ng/g"}, {"measurement": "concentration at 0.5 h", "setting": "[3]; tumor, 10 mg/kg, Tumor compound of formula 1, 10 mg/kg i.p. as phosphate salt, 0.5 h", "result": "767 ± 55.6", "unit": "ng/g"}, {"measurement": "concentration at 6 h", "setting": "[3]; tumor, 10 mg/kg, Tumor compound of formula 1, 10 mg/kg i.p. as phosphate salt", "result": "523 ± 37.3", "unit": "ng/g"}, {"measurement": "concentration at 24 h", "setting": "[3]; tumor, 10 mg/kg, Tumor compound of formula 1, 10 mg/kg i.p. as phosphate salt, 24 h", "result": "167 ± 54.2", "unit": "ng/g"}]}
